Measured values from ChEMBL document CHEMBL1201862, “PubChem BioAssay data set” (2004).
Calls of active or inactive are those of the source.

What was measured:
[1] = biological target: G-protein coupled receptor 55 (Homo sapiens, UniProt Q9Y2T6); test: selective activators of receptor GPR55 – imaging, U2OS cells, beta-arrestin-GFP redistribution, primary screen (AID 1961); type: functional
[2] = biological target: T1, Short transient receptor potential channel 4 (Mus musculus, UniProt Q9QUQ5); test: block of DAMGO-driven TRPC4 calcium entry – cell-based, HEK293 TRPC4/mu-opioid, Fluo-4 calcium, dose response (AID 434942); type: functional;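 note: potency of inhibitors blocking the TRPC4 calcium response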
T1 sequence (Q9QUQ5 whole entry): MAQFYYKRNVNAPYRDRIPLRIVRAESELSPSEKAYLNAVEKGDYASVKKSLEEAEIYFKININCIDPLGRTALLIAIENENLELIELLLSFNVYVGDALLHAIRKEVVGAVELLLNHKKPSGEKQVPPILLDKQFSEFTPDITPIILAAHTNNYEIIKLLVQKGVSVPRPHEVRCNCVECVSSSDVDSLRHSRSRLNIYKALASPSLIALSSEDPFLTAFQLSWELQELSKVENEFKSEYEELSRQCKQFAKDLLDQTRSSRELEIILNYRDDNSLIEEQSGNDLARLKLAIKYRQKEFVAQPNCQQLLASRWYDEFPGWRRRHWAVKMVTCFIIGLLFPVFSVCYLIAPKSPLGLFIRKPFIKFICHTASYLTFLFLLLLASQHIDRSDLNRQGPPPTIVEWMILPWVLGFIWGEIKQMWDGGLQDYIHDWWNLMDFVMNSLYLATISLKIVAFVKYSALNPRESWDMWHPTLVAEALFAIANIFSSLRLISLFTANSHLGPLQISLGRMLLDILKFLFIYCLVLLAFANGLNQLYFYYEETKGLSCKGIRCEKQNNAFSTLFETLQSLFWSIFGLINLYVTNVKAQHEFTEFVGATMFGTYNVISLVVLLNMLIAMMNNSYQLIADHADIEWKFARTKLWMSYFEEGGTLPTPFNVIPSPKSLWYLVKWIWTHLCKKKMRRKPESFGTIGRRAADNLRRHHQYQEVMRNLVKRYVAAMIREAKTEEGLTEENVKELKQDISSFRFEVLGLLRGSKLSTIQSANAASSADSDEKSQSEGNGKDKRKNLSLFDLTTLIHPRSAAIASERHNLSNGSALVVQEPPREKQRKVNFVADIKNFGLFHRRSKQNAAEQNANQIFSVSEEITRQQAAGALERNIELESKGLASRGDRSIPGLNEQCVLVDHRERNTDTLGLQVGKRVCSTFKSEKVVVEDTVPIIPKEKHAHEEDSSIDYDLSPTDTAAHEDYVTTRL

[3] = biological target: Glyceraldehyde-3-phosphate dehydrogenase (Homo sapiens, UniProt P04406)
[4] = biological target: T2, Alkaline phosphatase, tissue-nonspecific isozyme (Homo sapiens, UniProt P05186); test: potency against alkaline phosphatase TNAP – biochemical, luminescent, dose response, SAR follow-up (AID 1056)
T2 sequence (P05186 whole entry): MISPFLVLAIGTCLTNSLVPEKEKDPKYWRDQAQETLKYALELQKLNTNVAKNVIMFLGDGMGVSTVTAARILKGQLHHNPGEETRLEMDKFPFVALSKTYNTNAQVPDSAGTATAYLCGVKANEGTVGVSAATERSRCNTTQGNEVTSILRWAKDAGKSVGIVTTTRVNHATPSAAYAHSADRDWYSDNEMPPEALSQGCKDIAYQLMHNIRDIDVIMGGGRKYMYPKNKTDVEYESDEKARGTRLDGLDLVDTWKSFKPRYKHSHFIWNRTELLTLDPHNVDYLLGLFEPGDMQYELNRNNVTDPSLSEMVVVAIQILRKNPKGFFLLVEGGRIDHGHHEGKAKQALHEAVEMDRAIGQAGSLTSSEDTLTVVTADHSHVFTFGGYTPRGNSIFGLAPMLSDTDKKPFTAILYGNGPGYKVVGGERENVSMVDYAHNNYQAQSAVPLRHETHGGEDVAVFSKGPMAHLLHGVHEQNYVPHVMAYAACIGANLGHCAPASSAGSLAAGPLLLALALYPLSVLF

[5] = NIH-3T3 fibroblast cytotoxicity, dose response, cytotoxicity control, cell-based, fluorescence, Alamar Blue, secondary assay (AID 2327); type: functional;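 note: NIH-3T3 mouse fibroblasts cultured with fluconazole at 8 µg/mL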
[6] = luciferase reporter signal suppression in cells – H4 neuroglioma cells, luminescence, dose response (AID 1990); type: functional, cell-based
[7] = test system: Streptococcus sp. 'group A'; test: Streptococcus pyogenes SK(-)GAS viability under kanamycin – luminescence, BacTiterGlo, confirmation, counter-screen for streptokinase expression inhibitor project, dose response (AID 1900); type: functional, organism-based
[8] = Luminescence Cell-Based Dose Response HTS to Identify Inhibitors of 5'UTR Stem-Loop Driven Prion Protein mRNA Translation in H4 Neuroglioblastoma Cells. [Related pubchem assays: 1827 (Project Summary), 1813 (Primary HTS)]; type: functional
[9] = alpha-synuclein stem-loop luciferase translation blockers – H4 neuroglioma cells, luminescence, confirmation (AID 1988); type: functional, cell-based
[10] = biological target: T3, Streptokinase A (Streptococcus pyogenes serotype M1, UniProt P10520); test: viability-normalized secreted streptokinase activity reduction – plasminogen activation absorbance, OD405, dose response (AID 1914); type: functional, Streptococcus pyogenes M1 GAS;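 note: secreted streptokinase activity via plasminogen activation per viability signal from cell pellet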
T3 sequence (P10520 whole entry): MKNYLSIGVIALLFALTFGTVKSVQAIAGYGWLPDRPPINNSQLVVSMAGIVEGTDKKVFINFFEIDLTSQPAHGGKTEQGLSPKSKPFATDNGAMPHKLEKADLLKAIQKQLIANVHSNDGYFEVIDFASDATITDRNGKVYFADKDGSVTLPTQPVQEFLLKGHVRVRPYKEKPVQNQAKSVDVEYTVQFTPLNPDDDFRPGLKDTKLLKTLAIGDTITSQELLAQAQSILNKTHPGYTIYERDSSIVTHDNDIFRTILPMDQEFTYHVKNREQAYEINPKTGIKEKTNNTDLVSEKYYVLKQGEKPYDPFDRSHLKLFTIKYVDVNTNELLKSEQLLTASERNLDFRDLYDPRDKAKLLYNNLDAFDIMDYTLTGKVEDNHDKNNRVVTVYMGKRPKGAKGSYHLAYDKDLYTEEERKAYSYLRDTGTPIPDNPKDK

[11] = fluconazole-exposed Candida albicans growth modulators – fluorescence, retest, confirmation (AID 2467); type: functional, cell-based
[12] = test system: Streptococcus; test: GAS UMAA2166 growth inhibition – luminescence, BacTiterGlo, counter-screen for streptokinase expression inhibitor project, dose response (AID 1915); type: functional, organism-based;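 note: potency for reduction of bacterial viability or growth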
[13] = biological target: Nonstructural protein 1 (Influenza A virus, UniProt Q194T2); type: functional, Influenza A virus (A/California/07/2009(H1N1))
[14] = test system: INS1; test: INS-1E survival protection against cytokine death – cell-based, luminescence, retest, dose response (AID 449756); type: functional; details: Rattus norvegicus;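 note: cell death triggered by IL-1 beta plus TNF-alpha plus IFN-gamma mixture; protective hits raise ATP signal compared with cytokine alone wells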
[15] = biological target: Troponin, cardiac muscle (Homo sapiens, UniProt P19429+P45379+P63316); test: Fluorescence-based biochemical high throughput dose response assay for activators of the calcium sensitivity of cardiac Regulated Thin Filaments (RTF). [Related pubchem assays (depositor defined):AID493008, AID493018, AID504382, AID504383]; type: protein-complex assay
[16] = biological target: Eukaryotic translation initiation factor 4E (Mus musculus, UniProt P63073); test: blockers of eIF4G binding by eIF4E – biochemical, TR-FRET, dose response (AID 855); type: functional;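 note: potency for disrupting eIF4E binding to eIF4GI seen as loss of FRET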
[17] = viability of uninfected HEp-2 cells – cell-based, HTS, cytotoxicity control for RSV inhibitor project, dose response (AID 2410); type: functional; details: human respiratory syncytial virus

Sequence of G-protein coupled receptor 55 (Q9Y2T6 whole entry): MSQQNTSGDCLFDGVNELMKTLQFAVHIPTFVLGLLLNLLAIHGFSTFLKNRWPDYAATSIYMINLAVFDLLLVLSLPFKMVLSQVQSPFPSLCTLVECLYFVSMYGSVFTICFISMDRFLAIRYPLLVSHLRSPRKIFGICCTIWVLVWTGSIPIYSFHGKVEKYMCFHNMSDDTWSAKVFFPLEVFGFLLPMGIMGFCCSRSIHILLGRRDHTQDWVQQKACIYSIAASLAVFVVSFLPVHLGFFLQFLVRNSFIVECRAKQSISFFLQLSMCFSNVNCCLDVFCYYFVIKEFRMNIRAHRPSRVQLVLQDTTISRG
Sequence of Glyceraldehyde-3-phosphate dehydrogenase (P04406 whole entry): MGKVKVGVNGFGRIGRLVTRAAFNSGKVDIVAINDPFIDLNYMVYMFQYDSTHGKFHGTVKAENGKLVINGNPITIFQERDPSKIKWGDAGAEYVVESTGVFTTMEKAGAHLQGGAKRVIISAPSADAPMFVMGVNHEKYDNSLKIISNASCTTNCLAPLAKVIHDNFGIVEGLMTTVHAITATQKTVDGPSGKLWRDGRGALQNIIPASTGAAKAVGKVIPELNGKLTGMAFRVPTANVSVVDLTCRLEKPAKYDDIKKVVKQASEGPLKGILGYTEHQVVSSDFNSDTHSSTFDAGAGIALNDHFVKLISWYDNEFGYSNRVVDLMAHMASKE
Sequence of Eukaryotic translation initiation factor 4E (P63073 whole entry): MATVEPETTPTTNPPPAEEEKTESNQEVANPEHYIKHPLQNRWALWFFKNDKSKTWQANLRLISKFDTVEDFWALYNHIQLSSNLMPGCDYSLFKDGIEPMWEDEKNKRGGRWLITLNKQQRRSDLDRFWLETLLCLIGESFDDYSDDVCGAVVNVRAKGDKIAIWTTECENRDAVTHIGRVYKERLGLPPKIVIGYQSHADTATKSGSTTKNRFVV
Sequence of Nonstructural protein 1 (Q194T2 whole entry): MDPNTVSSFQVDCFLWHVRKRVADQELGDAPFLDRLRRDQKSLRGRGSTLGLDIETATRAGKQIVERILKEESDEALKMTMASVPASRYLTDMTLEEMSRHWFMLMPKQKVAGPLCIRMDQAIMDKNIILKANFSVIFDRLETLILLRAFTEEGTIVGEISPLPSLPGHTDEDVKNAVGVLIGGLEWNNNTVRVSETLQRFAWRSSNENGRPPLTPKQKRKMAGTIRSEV

In the case of `CC(C)C[C@@H](CSc1ccccc1)N1CCN(CCc2ccccc2)CCC1=O`, the EC50 [1] is reported as 6.56 µM (active).

In the case of `N=c1sccn1CC(=O)Nc1ccccc1Oc1ccccc1`, the EC50 [2] is reported as 5.96 µM (active).

With `O=S(=O)(Nc1cccnc1)c1ccccc1OC(F)(F)F` the IC50 [3] was > 100 µM (not active) and the IC50 [4] was > 100 µM (inactive).

For `Cc1ccc2cc(CN(CCCN3CCOCC3)C(c3nnnn3Cc3ccco3)C(C)C)c(O)nc2c1C` (centres undefined), the EC50 [2] was 0.473 µM (active).

With `COc1cccc(/C=N/Nc2cc(N3CCOCC3)ncn2)c1O` the EC50 [5] was > 150 µM (inactive), the EC50 [6] was 8.79 µM (active) and the EC50 [7] was 9.07 µM (active). For the same molecule, the EC50 [8] was 4.01 µM (active), the EC50 [9] was 4.5 µM (active) and the EC50 [10] was > 150 µM (not active). For the same molecule, the EC50 [11] was 5.78 µM (active), the EC50 [12] was 9.45 µM (active) and the IC50 [13] was 5.96 µM (active). The AC50 [14] was 3.04 µM (active).

With `Oc1[nH]nc(C(F)(F)F)c1/C=N/Cc1ccccc1Cl` the EC50 [15] was > 71.4 µM (inactive).

In the case of `Sc1nnc(-c2ccco2)n1/N=C/c1ccc(Cl)cc1Cl`, the IC50 [16] is reported as > 64 µM (inactive).

In the case of `Oc1c(Cl)cc(Cl)cc1/C=N/c1ccccc1N1CCCC1`, the CC50 [17] is reported as 20.9 µM (active) and the EC50 [1] is reported as > 32 µM (inactive).
